The record followed here is ChEMBL document CHEMBL1201862, “PubChem BioAssay data set” (2004).

The target in experiment [1] is T1, Sentrin-specific protease 6 (Homo sapiens, UniProt Q9GZR1).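 Further: Luminescence-based dose-response confirmatory assay of SENP6 inhibition, following up an ultra-high-throughput screen.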
T1 sequence (Q9GZR1 whole entry): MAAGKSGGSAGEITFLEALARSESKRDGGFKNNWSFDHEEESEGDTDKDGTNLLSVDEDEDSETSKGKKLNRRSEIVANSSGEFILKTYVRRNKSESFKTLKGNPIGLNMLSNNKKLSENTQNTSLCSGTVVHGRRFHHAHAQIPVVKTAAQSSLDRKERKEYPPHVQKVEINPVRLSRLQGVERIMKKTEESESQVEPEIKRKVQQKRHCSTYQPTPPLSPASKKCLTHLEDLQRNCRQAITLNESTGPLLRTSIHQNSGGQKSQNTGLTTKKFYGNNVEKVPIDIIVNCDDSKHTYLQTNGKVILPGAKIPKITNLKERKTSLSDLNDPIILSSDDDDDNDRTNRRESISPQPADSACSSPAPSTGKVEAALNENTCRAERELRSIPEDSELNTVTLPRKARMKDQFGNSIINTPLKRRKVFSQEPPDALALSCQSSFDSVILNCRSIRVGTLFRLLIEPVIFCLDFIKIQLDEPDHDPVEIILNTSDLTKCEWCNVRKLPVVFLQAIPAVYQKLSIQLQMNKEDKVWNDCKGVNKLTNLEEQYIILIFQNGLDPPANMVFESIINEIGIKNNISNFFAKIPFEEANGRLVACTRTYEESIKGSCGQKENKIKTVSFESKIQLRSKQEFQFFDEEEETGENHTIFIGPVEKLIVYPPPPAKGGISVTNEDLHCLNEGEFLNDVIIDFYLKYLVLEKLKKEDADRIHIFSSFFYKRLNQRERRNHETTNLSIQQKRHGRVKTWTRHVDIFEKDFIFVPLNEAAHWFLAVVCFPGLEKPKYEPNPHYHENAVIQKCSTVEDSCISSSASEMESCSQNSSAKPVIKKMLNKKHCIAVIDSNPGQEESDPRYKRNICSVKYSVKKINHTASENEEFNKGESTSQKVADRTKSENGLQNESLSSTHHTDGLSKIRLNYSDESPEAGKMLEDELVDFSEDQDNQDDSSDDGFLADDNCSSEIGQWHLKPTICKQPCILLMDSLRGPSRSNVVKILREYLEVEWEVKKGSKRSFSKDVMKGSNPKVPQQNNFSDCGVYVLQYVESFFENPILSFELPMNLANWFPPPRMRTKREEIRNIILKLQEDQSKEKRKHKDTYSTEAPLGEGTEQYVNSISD
Format: functional.

Experiment [2] addresses T2, Sentrin-specific protease 8 (Homo sapiens, UniProt Q96LD8).
T2 sequence (Q96LD8 whole entry): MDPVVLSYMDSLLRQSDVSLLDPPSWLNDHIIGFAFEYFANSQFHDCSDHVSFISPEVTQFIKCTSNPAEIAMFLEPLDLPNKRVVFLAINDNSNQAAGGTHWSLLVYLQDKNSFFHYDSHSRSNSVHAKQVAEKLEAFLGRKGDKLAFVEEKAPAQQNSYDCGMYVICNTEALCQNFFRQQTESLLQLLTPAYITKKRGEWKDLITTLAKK
Format: functional.

In experiment [3] the target is T3, Leucine aminopeptidase (Plasmodium falciparum 3D7, UniProt Q8IL11).
T3 sequence (Q8IL11 whole entry): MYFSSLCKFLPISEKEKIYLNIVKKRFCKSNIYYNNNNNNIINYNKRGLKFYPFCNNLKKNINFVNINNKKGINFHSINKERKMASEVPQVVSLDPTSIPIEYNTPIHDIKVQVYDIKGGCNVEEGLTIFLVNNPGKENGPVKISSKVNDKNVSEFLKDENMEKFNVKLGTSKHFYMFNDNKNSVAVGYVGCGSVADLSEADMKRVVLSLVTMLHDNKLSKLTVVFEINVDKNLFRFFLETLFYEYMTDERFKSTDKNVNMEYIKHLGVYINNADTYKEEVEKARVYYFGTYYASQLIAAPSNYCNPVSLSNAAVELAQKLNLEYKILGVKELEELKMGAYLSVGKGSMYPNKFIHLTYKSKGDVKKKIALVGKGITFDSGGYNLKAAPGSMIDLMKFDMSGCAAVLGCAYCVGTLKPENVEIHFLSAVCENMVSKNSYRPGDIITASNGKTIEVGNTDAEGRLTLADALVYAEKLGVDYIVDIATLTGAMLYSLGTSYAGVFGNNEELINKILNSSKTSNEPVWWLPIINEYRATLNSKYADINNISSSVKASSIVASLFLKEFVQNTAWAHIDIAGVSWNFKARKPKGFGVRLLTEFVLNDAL
Kind of experiment: P. falciparum M17LAP inhibitors, primary screen, biochemical, fluorogenic H-Leu-NHMec substrate, 1536-well (AID 1619). The experiment is classed as functional.

Experiment [4] deals with T4, Aminopeptidase N (Plasmodium falciparum FcB1/Columbia, UniProt O96935).
T4 sequence (O96935 whole entry): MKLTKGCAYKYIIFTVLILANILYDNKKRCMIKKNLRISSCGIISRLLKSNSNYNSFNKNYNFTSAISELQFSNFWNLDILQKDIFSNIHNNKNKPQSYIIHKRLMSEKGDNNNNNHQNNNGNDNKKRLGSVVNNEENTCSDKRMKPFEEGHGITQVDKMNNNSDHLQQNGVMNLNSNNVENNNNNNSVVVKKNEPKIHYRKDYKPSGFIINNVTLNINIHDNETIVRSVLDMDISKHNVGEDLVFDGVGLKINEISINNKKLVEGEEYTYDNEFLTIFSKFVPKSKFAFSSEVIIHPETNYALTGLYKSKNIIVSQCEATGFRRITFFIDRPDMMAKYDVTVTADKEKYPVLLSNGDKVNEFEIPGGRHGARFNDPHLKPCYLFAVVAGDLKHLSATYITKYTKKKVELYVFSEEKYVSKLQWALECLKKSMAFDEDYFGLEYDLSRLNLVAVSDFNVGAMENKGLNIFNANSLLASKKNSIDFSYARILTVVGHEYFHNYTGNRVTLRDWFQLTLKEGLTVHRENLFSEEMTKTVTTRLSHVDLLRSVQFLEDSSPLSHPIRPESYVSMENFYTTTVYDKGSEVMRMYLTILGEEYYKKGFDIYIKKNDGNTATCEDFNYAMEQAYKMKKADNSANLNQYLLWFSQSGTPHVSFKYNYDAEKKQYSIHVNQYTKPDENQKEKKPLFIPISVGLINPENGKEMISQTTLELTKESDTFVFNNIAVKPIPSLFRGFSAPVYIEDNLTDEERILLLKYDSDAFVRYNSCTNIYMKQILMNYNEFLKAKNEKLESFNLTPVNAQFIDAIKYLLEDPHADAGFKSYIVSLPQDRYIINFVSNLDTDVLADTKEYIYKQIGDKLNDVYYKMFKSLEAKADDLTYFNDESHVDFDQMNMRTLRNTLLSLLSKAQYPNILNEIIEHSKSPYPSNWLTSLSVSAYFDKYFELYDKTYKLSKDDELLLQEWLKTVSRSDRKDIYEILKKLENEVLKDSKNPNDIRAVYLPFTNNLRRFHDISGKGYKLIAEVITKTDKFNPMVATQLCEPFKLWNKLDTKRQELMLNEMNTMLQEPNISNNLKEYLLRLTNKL
The experiment in a line: malaria alanyl aminopeptidase activity blockers – biochemical, fluorogenic H-Leu-NHMec substrate, 1536-well (AID 1445). More on the design: species or system Plasmodium falciparum 3D7, 3D7.

Activity calls are given as the source filed them. Bounds are passed on as bounds.

What is called IC50 is the point on the concentration scale where inhibition reaches its midpoint.

As to `c1ccc2c(Nc3nnc(-c4ccncc4)s3)cccc2c1`, the IC50 in experiment [1] was 10.1 µM (active); in experiment [2] it was > 100 µM (inactive).

Regarding `N#Cc1c(O)nc(SCC(=O)N2c3ccccc3Sc3ccccc32)nc1-c1ccccc1`, the results for the IC50 in experiment [3] and in experiment [4] were 10.2 µM (active) and 11.2 µM (active), respectively.

Take `N=C1S/C(=C\c2ccc(-c3ccccc3C(=O)O)o2)C(=O)N1c1ccc2c(c1)OCO2`: the IC50 in experiment [3] was 29 µM (active); in experiment [4] it was 10.3 µM (active).

As to `COc1cc(C(=O)c2nccc3cc(OC)c(OC)cc23)c([N+](=O)[O-])cc1OC`, the IC50 is 0.936 µM (active) in experiment [1] and 4.97 µM (active) in experiment [2].
